Results as given in ChEMBL document CHEMBL1201862, “PubChem BioAssay data set” (2004).
Active and inactive are the calls of the source. Unless noted, the rule behind the calls is not given here.

What was measured:
[1] = tested on: HeLa; test: viability loss in HeLa cells – cell-based, ATP luminescence, cherry-pick samples, cytotoxicity control, dose response (AID 687004); format: functional; conditions: Homo sapiens
[2] = A Cell-Based Confirmatory Screen for Compounds that Inhibit VEEV, TC-83 (8).; format: functional
[3] = A Cell-Based Confirmatory Screen for Compounds that Inhibit VEEV, TC-83 (7).; format: functional
[4] = ATP-based viability loss in HeLa cells – cell-based, CellTiter-Glo luminescence, dry powder, set 2, cytotoxicity control, dose response (AID 720593); format: functional
[5] = molecular target: Endoplasmic reticulum aminopeptidase 1 (Homo sapiens, UniProt Q9NZ08); test: inhibition of human ERAP1 enzyme activity – biochemical, cherry-pick, set 2, plate reader, dose response (AID 743314)
Chain of Endoplasmic reticulum aminopeptidase 1 (Q9NZ08 whole entry): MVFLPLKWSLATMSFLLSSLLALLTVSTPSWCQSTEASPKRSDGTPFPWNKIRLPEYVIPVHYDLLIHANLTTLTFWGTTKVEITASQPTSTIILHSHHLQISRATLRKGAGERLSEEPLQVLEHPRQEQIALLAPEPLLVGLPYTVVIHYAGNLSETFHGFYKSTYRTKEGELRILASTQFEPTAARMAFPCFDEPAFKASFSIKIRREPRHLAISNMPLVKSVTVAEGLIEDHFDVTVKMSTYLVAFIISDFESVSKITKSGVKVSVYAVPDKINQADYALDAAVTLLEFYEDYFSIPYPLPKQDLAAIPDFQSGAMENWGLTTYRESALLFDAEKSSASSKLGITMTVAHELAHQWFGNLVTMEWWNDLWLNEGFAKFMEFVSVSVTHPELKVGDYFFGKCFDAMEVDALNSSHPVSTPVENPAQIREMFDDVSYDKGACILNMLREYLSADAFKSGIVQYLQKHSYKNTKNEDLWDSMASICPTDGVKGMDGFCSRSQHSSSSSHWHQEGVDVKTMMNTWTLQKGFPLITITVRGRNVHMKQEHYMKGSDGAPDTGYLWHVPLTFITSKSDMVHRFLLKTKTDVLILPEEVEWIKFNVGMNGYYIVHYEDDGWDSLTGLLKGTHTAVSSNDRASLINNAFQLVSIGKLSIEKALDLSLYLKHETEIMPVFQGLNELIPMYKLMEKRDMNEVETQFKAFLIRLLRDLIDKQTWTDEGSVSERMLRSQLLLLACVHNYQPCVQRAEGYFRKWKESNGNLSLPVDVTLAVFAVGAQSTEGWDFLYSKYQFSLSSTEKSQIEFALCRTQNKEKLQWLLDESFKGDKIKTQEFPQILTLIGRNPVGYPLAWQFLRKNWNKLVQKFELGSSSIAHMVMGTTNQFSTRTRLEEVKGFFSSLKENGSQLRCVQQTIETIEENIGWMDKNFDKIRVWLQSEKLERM

[6] = T. cruzi growth inhibition in host cells, dose response, cell-based, plate reader, dry powder, set 2 (AID 652275); format: functional
[7] = Late stage assay provider results from the probe development effort to identify inhibitors of the Plasmodium falciparum M17 Leucine Aminopeptidase (M17LAP): radiolabel-based cell-based dose response assay to identify compounds that inhibit P. falciparum growth in RBCs Set 2.; format: functional

## C(=Nn1cnnc1)c1ccc2c(c1)CCC2
[1]
  AC50: 28.2 µM (active)

## COc1ccc(NC(=O)c2cc([N+](=O)[O-])ccc2/N=C2\CN(C)CCN2C)cc1
[2]
  IC50: 0.037 µM (active)
[3]
  IC50: 0.04 µM (active)

## O=C(Nc1nc(-c2ccccn2)cs1)c1ccc(S(=O)(=O)N2CCOCC2)cc1
[4]
  AC50: 41.1 µM (active)

## CCCN1[C@@H]2Cn3c(ccc(/C=C/c4ccccc4)c3=O)[C@H]1[C@@H](C(=O)NCc1ccccn1)[C@@H]2CO
[5]
  AC50: 8.95 µM (active)

## COc1ccc(C#Cc2cccc(-c3nc(C(=O)NCc4ccc5c(c4)OCO5)cc4c3[C@H](CCO)N([S+]([O-])C(C)(C)C)C4)c2)cc1OC (some centres not stated)
[6]
  AC50: 0.844 µM (active)

## CCCCOc1ccc(CC(=O)N(C)O)cc1
[7]
  IC50: 15 µM (inactive)
